# Where two headings read alike, the source gives them in different places.
# Legend:
# [1] = target: human (hACC2) (Homo sapiens, UniProt O00763); assay: In vitro ACC inhibition assay (ADP-Glo), hACC2; assay type: biochemical; settings: 5 nM ACC2, 20 μM ATP, 20 μM acetyl-CoA
# Description: The detailed procedure is as follows. […] 10 μL ADP glo reagent was added. […] 20 μL kinase detection reagent was added.
# [2] = system: C. albicans; assay: Antifungal Activity Assay (broth microtiter MIC), C. albicans; assay type: cell-based, Candida albicans; settings: Candida albicans, ATCC90028, 48 h, ATCC 90028, 3 replicates, MIC recorded at 48 h, read-out: MIC, C. albicans ATCC 90028
# Description: (§1) Compounds of the present invention were evaluated in an Antifungal Activity Assay. An exemplary procedure for the assay, which measures the susceptibility of various Candida species to antifungal compounds, follows. Compounds to be tested (including fluconazole and amphotericin B) were dissolved in DMSO to obtain a solution having a concentration of 1 mg/mL. These stock solutions were sterile filtered using a 0.22 um nylon syringe filter, then diluted in sterile water to achieve a final concentration of 128 μg/mL.
# (§2) All species were grown from frozen stock by directly plating on to freshly prepared Sabouraud Dextrose agar (BD, Difco) and incubated overnight in ambient air at 35° C. for 24 h. A direct suspension was prepared in RPMI 1640+MOPS (Lonza, Biowhittaker) by taking individual colonies from the overnight cultures using sterile swabs soaked in sterile saline. The concentration of the suspension was determined using pre-determined standard curves. These suspensions were then diluted down to 5×10^3 CFU/mL to achieve a final concentration of 2.5×10^3 CFU/mL once added to the microtiter plate as per CLSI guidelines (M27-A3, Vol. 28 No. 14).
# (§3) Broth microtiter MIC challenge plates were prepared following CLSI guidelines (M27-A3, Vol. 28 No. 14). The original CLSI guidelines focused on reading Candida MICs after 48 h of incubation. As reading after only 24 h offers a clear advantage of patient care, QC limits are being established for all drugs at 24 h. That being said there are no known interpretive breakpoints for amphotericin B at 24 h and the current fluconazole interpretive breakpoints are based on a 48 h reading. The MICs for the test compounds were recorded at 48 h. All MIC determinations were achieved by visually comparing the growth found in the antibiotic challenged wells to that of the growth control.
# [3] = system: C. krusei; assay: Antifungal Activity Assay (broth microtiter MIC), C. krusei; assay type: cell-based, Candida krusei; settings: Pichia kudriavzevii, ATCC6258, 48 h, ATCC 6258, 3 replicates, MIC recorded at 48 h, read-out: MIC, C. krusei ATCC 6258
# Description: as §1, §2, §3
# [4] = system: C. parapsilosis; assay: Antifungal Activity Assay (broth microtiter MIC), C. parapsilosis; assay type: cell-based, Candida parapsilosis; settings: Lodderomyces parapsilosis, ATCC22019, 48 h, ATCC 22019, 3 replicates, MIC recorded at 48 h, read-out: MIC, C. parapsilosis ATCC 22019
# Description: as §1, §2, §3
# [5] = target: fungal (fACC2) (UniProt Q00955); settings: read-out: fACC2 (in vitro ACC2 Inhibition Assay, IC50), ADP-Glo, 5 nM ACC2, 20 μM ATP, 20 μM acetyl-CoA
# fungal (fACC2), sequence (Q00955 whole entry): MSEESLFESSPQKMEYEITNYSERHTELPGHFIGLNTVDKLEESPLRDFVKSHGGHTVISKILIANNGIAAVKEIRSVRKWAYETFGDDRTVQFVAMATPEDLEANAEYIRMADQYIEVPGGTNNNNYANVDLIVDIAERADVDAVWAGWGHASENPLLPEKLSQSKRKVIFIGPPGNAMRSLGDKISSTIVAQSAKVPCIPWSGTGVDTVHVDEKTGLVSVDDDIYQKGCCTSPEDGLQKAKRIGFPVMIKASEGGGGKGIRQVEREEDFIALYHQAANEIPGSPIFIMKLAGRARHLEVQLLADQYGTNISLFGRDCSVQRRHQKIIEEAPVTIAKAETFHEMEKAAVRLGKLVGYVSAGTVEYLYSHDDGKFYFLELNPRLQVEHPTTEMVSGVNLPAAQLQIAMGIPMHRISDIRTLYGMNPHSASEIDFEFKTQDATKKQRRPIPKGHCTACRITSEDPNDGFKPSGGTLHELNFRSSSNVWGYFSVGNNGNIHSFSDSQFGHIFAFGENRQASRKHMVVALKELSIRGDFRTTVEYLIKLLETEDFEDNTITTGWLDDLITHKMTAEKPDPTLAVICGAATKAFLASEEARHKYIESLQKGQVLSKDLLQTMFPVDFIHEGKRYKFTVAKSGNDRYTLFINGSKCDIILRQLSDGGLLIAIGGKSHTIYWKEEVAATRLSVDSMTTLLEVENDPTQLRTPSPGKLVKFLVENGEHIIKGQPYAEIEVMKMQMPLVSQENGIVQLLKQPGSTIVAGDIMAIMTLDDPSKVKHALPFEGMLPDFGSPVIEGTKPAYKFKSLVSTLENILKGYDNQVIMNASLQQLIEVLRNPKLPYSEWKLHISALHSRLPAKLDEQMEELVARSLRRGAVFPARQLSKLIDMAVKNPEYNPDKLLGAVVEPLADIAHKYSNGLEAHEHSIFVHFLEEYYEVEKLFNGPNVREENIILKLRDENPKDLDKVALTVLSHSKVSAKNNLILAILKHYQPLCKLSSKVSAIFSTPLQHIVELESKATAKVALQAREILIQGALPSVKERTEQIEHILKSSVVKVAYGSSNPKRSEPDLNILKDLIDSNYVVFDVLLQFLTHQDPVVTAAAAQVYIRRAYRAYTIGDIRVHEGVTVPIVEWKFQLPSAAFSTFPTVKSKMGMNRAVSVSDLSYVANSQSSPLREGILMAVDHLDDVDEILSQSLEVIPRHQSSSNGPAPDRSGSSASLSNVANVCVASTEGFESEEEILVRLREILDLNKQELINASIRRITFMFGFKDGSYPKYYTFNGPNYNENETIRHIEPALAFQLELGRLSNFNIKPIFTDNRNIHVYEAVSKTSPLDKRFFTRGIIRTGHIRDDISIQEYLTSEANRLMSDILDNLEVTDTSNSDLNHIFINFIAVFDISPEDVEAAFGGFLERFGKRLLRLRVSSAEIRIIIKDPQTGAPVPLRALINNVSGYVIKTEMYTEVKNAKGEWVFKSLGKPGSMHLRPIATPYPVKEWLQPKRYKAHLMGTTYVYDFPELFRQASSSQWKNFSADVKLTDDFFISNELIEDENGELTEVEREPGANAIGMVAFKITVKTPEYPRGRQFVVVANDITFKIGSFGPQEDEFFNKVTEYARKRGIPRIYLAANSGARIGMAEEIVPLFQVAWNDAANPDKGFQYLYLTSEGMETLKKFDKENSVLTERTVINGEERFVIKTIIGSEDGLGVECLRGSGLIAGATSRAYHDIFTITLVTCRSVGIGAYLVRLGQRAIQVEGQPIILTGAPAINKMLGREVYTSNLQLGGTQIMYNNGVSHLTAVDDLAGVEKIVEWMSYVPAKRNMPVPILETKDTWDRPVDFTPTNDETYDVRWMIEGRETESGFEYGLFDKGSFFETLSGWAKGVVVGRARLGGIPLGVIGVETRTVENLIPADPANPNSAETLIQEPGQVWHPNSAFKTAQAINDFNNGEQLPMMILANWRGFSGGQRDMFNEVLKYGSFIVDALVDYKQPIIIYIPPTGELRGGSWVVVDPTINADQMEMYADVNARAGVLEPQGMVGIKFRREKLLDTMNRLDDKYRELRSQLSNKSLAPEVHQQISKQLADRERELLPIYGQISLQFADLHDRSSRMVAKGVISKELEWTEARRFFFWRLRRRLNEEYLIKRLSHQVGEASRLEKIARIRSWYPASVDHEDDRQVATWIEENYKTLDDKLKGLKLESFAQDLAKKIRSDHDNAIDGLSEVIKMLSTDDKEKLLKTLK
# human (hACC2), sequence (O00763 whole entry): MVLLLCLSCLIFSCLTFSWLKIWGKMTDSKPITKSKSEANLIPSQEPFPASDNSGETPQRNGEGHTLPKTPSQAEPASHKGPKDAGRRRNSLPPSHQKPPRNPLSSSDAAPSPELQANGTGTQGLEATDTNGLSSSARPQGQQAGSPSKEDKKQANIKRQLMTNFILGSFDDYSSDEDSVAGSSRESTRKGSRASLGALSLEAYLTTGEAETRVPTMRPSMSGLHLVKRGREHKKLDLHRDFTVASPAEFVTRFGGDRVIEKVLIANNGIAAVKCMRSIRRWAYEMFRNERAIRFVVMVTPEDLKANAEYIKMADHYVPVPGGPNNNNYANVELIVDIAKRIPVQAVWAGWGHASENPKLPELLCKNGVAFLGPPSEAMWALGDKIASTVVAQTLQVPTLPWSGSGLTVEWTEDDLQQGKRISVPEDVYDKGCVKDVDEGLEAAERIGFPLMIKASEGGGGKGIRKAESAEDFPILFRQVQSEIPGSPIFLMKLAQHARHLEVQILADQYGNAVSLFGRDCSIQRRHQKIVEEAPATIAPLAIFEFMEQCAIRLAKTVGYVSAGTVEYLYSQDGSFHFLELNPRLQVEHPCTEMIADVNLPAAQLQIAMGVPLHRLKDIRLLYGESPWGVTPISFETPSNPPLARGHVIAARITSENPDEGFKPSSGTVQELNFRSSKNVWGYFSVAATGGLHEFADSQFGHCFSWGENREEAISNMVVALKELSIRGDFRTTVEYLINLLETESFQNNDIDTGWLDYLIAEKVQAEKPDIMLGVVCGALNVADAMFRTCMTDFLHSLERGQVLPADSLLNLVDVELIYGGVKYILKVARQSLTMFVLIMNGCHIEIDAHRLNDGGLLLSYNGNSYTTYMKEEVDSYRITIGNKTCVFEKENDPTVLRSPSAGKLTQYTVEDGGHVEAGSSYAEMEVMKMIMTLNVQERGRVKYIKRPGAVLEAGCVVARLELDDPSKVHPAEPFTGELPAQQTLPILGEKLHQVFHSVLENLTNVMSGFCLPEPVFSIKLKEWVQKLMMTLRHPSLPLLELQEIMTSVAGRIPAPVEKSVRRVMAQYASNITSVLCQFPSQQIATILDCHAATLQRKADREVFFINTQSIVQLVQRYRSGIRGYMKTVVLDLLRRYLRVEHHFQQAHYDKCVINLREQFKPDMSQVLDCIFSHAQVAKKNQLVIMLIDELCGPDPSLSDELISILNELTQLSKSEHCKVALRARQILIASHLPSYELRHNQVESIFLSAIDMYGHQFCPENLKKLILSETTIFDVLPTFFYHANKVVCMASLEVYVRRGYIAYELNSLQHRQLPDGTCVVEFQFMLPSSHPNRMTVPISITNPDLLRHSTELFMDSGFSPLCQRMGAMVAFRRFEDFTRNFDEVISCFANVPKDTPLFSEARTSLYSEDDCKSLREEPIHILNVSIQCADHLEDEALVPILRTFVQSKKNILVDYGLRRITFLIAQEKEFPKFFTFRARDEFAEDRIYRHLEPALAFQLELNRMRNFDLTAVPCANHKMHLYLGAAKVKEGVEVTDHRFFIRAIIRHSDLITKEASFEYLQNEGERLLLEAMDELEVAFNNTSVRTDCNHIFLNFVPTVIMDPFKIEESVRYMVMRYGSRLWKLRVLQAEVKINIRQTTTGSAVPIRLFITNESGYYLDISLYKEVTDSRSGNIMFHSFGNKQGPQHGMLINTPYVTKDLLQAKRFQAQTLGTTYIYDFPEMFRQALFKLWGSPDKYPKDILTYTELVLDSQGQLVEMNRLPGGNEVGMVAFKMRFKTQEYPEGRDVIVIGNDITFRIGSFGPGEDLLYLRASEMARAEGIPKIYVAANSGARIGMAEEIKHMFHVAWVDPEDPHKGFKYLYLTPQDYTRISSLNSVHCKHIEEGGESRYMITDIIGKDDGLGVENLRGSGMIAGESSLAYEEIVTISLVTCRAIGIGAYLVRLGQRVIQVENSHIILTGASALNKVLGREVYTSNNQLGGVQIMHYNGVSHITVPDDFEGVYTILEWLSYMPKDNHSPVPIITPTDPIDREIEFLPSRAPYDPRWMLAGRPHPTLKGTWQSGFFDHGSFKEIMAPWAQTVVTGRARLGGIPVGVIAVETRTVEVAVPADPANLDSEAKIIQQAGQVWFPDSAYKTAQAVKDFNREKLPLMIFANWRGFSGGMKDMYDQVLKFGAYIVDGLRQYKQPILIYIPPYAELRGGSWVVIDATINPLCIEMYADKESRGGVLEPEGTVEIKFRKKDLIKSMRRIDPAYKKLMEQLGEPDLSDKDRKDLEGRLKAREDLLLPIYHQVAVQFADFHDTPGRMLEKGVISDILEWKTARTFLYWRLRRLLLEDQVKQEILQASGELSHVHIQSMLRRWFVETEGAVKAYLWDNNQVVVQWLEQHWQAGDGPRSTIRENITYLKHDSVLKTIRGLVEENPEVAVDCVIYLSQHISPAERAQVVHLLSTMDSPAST
SMILES,"IC50 ([1]; Table 2b, additional results) [nM]",MIC ([2]; Table 3b (additional results)) [µg/mL],MIC ([3]; Table 3b (additional results)) [µg/mL],MIC ([4]; Table 3b (additional results)) [µg/mL],"IC50 ([5]; Table 2b, additional results) [nM]",IC50 ([1]; Table 2a) [nM],MIC ([2]; Table 3a) [µg/mL],MIC ([3]; Table 3a) [µg/mL],MIC ([4]; Table 3a) [µg/mL],IC50 ([5]; Table 2a) [nM]
CCc1ccc(F)cc1[C@H](Cn1c(=O)n(C(C)(C)C(=O)NC(C)C)c(=O)c2c(C)c(-n3nccn3)sc21)OCC(C)(C)O (stereo in doubt) [Compound I-240],10 to 40,1.01 to 2,> 4.01,2.01 to 4,1 to 5,,,,,
CCc1ccc(F)cc1[C@@H](Cn1c(=O)n(C(C)(C)C(=O)NC(C)C)c(=O)c2c(C)c(-n3nccn3)sc21)OCC(C)(C)O (stereo in doubt) [Compound I-241],> 40,1.01 to 2,> 4.01,2.01 to 4,5 to 10,,,,,
"COCCO[C@@H](Cn1c(=O)n([C@@H](C)C(=O)NC(C)C)c(=O)c2c(C)c(-n3nccn3)sc21)c1cc(F)ccc1OC [Compound I-83, (S)-2-(1-((R)-2-(5-fluoro-2-methoxyphenyl)-2-(2-methoxy-ethoxy)ethyl)-5-methyl-2,4-dioxo-6-(2H-1,2,3-triazol-2-yl)-1,4-dihydrothieno[2,3-d]pyrimidin-3(2H)-yl)-N-isopropylpropanamide]",> 40,> 4.01,2.01 to 4,1.01 to 2,1 to 5,> 40,2.1 to 4,2.1 to 4,2.1 to 4,1 to 5
[2H]C([2H])([2H])Oc1ccccc1[C@H](Cn1c(=O)n(C(C)(C)C(N)=O)c(=O)c2c(C)c(-n3nccn3)sc21)OC1CCOCC1 [Compound I-92],5 to 10,0.25 to 1,1.01 to 2,2.01 to 4,,5 to 10,0.25 to 1,0.25 to 1,1.1 to 2,
COc1ccc(F)cc1[C@H](Cn1c(=O)n(C(C)(C)C(=O)O)c(=O)c2c(C)c(-n3nccn3)sc21)OC(C)C [Compound I-93],5 to 10,2.01 to 4,1.01 to 2,> 4.01,,5 to 10,2.1 to 4,2.1 to 4,> 4.1,
COc1ccc(F)cc1[C@H](Cn1c(=O)n(C(C)(C)C(=O)O)c(=O)c2c(C)c(-n3nccn3)sc21)OCC(C)C [Compound I-94],1 to 5,2.01 to 4,2.01 to 4,> 4.01,,1 to 5,0.25 to 1,2.1 to 4,2.1 to 4,
COc1ccc(F)cc1[C@H](Cn1c(=O)n(C(C)(C)C(=O)N2CC(O)C2)c(=O)c2c(C)c(-n3nccn3)sc21)OCC(C)C [Compound I-95],5 to 10,2.01 to 4,1.01 to 2,2.01 to 4,,5 to 10,1.1 to 2,1.1 to 2,1.1 to 2,
COc1ccccc1[C@H](Cn1c(=O)n(C(C)(C)C(=O)O)c(=O)c2c(C)c(-n3nccn3)sc21)OC1CCOCC1 [Compound I-96],1 to 5,1.01 to 2,2.01 to 4,2.01 to 4,1 to 5,1 to 5,2.1 to 4,2.1 to 4,2.1 to 4,1 to 5
COc1ccc(F)cc1[C@H](Cn1c(=O)n(C(C)(C)C(=O)NC(C)C)c(=O)c2c(C)c(-n3nccn3)sc21)OCC(C)=O [Compound I-97],1 to 5,1.01 to 2,0.25 to 1,1.01 to 2,0.3 to 1,1 to 5,0.25 to 1,0.06 to 0.24,0.25 to 1,0.4 to 1

# From US10800791B2, “Triazole ACC inhibitors and uses thereof” (Gilead Apollo, LLC, priority 2015, dated 2020)
